# Data from patent US6500800B1, “Composition and method for causing photodynamic damage to target cells” (priority 1996, dated 2002).
# Read-outs that look alike come from different tables or passages of the source.
# Test system: Human hepatoma PLC/PRF/5 cells
# Experiment: Photodynamic damage (PDD), survival rate of cells versus concentration after irradiation
# Assay type: cell-based
# Text: A stands for (P10)-insulin-(chlorin e6); B stands for (β-galactosidase)-insulin-(chlorin e6); C stands for chlorin e6; […] Survival rate of human hepatoma PLC/PRF/5 cells plotted against concentration of compositions and chlorin e6 is depicted in FIGS. 2 and 3.
smiles,measurement,setting,value
C=Cc1c(C)c2cc3nc(c(CC(=O)O)c4[nH]c(cc5nc(cc1[nH]2)C(C)=C5CC)c(C)c4C(=O)O)[C@@H](CCC(=O)O)[C@@H]3C [chlorin e6],EC50,"irradiation dose of 12.3 kJ/m^2, read-out: EC50 value (concentration of a semi-maximal effect)",11.5 µM
same,EC50,"irradiation dose of 96 kJ/m^2, read-out: EC50 value",0.35 µM
